The assay relates to P388 leukemia ip, CD2F1 mice, survival T/C. The assay can be described thus: NCI In Vivo Anticancer Drug Screen. Data for tumor model P388 Leukemia (intraperitoneal) in CD2F1 (CDF1) mice. Particulars: endpoint: median survival time, higher = longer survival. The gist of the method: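 Mice carrying the transplanted tumor received test compound or vehicle. Survival was recorded in each group, and the value is the treated-group measurement divided by that of the vehicle-treated control group.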

Where [1] appears, read: dose: 100.0 mg/kg/injection, schedule: Q04DX003 (ip), vehicle: Klucel (hydroxypropylcellulose) (HPC).
Where [2] appears, read: dose: 200.0 mg/kg/injection, schedule: Q04DX003 (ip), vehicle: Klucel (hydroxypropylcellulose) (HPC).
[3] abbreviates: dose: 400.0 mg/kg/injection, schedule: Q04DX003 (ip), vehicle: Klucel (hydroxypropylcellulose) (HPC).
[4] abbreviates: dose: 50.0 mg/kg/injection, schedule: Q01DX005 (ip), vehicle: saline with Tween-80.
The mark [5] stands for this setting: dose: 100.0 mg/kg/injection, schedule: Q01DX005 (ip), vehicle: saline with Tween-80.
[6] abbreviates: dose: 200.0 mg/kg/injection, schedule: Q01DX005 (ip), vehicle: saline with Tween-80.
Where [7] appears, read: dose: 50.0 mg/kg/injection, schedule: Q01DX005 (ip), vehicle: Klucel (hydroxypropylcellulose) (HPC).
The mark [8] stands for this setting: dose: 100.0 mg/kg/injection, schedule: Q01DX005 (ip), vehicle: Klucel (hydroxypropylcellulose) (HPC).
Setting [9] is: dose: 200.0 mg/kg/injection, schedule: Q01DX005 (ip), vehicle: Klucel (hydroxypropylcellulose) (HPC).
Where [10] appears, read: dose: 100.0 mg/kg/injection, schedule: Q04DX003 (ip), vehicle: saline with Tween-80.
Where [11] appears, read: dose: 200.0 mg/kg/injection, schedule: Q04DX003 (ip), vehicle: saline with Tween-80.
The mark [12] stands for this setting: dose: 50.0 mg/kg/injection, schedule: Q01DX009 (ip), vehicle: saline with Tween-80.
Where [13] appears, read: dose: 100.0 mg/kg/injection, schedule: Q01DX009 (ip), vehicle: saline with Tween-80.

Among the data in PubChem BioAssay AID330 (DTP/NCI, 2004) are T/C values, retold here.

Each structure is given as a SMILES string. Values joined by “and” are separate entries in the source; they are usually repeats but may differ in a detail not shown here. Identical values can stand only once. Inconclusive results and toxic doses are left out.

For `C/C(=N/NC(=O)Cc1ccccc1)C(=NO)/C(C)=N\NC(=O)Cc1ccccc1`, the T/C reads like this: (dose: 100.0 mg/kg/injection, schedule: Q04DX002 (ip), vehicle: saline) 101 % of control; (dose: 200.0 mg/kg/injection, schedule: Q04DX002 (ip), vehicle: saline) 108 % of control; (dose: 400.0 mg/kg/injection, schedule: Q04DX002 (ip), vehicle: saline) 116 % of control.
Regarding `CN(C)CC(CN(C)C)C(=O)/C=C/c1ccc(Cl)cc1Cl`, the T/C reads like this: (dose: 7.5 mg/kg/injection, schedule: Q01DX005 (ip), vehicle: saline) 104 % of control; (dose: 15.0 mg/kg/injection, schedule: Q01DX005 (ip), vehicle: saline) 97 % of control; (dose: 30.0 mg/kg/injection, schedule: Q01DX005 (ip), vehicle: saline) 100 % of control.
On to `[Cl][Hg][CH]1CCCC2OC(C(Cl)(Cl)Cl)OC21` (centres undefined), for which the T/C was 113 % of control (dose: 3.13 mg/kg/injection, schedule: Q01DX001 (ip), vehicle: saline with Tween-80); 97 % of control (dose: 6.25 mg/kg/injection, schedule: Q01DX001 (ip), vehicle: saline with Tween-80); 94 % of control (dose: 12.5 mg/kg/injection, schedule: Q01DX001 (ip), vehicle: saline with Tween-80).
Turning to `O=c1c[n+](-c2ccccc2)[nH]o1`, the T/C is 109 % of control under setting [1], 100 % of control under setting [2] and 104 % of control under setting [3].
With `C=C1CC23CCC4C(C)(C(=O)O)CCCC4(C)C2CCC1C3` (centres undefined), the T/C runs as follows: under setting [4], 116 % of control; under setting [5], 116 % of control; under setting [6], 117 % of control; (dose: 400.0 mg/kg/injection, schedule: Q01DX005 (ip), vehicle: saline with Tween-80) 107 % of control.
`COc1cc2c(cc1C(C)c1ccc(F)cc1)OCO2` (centres undefined): the T/C by setting is: under setting [4], 98 % of control; under setting [5], 100 % of control; under setting [6], 107 % of control.
As for `CC(C)(C)c1ccnc(C(O)(C(F)(F)F)C(F)(F)F)c1`, the T/C was 93 % of control (dose: 25.0 mg/kg/injection, schedule: Q01DX005 (ip), vehicle: Klucel (hydroxypropylcellulose) (HPC)); 101 % of control under setting [7]; 108 % of control under setting [8]; 103 % of control under setting [9].
With `COc1cccc2c1C(=O)c1c(O)c3c(c(O)c1C2=O)CC(O)(/C(C)=N/NC(=O)CCCC(=O)N/N=C(\C)C1(O)Cc2c(O)c4c(c(O)c2C(OC2CC(N)C(O)C(C)O2)C1)C(=O)c1c(OC)cccc1C4=O)CC3OC1CC(N)C(O)C(C)O1` (centres undefined), the T/C was 105 % of control (dose: 0.2 mg/kg/injection, schedule: Q01DX009 (ip), vehicle: water); 90 % of control (dose: 0.39 mg/kg/injection, schedule: Q01DX009 (ip), vehicle: water); 150 % of control (dose: 0.78 mg/kg/injection, schedule: Q01DX009 (ip), vehicle: water); 188 % of control (dose: 1.56 mg/kg/injection, schedule: Q01DX009 (ip), vehicle: water); 167 % of control (dose: 3.13 mg/kg/injection, schedule: Q01DX009 (ip), vehicle: water).
As for `COc1cc2c[n+]3c(c(C)c2cc1OC)-c1cc2c(cc1CC3)OCO2`, the T/C by setting is: (dose: 6.25 mg/kg/injection, schedule: Q04DX003 (ip), vehicle: distilled water + Tween-80) 106 % of control; (dose: 12.5 mg/kg/injection, schedule: Q04DX003 (ip), vehicle: distilled water + Tween-80) 113 % of control; (dose: 25.0 mg/kg/injection, schedule: Q04DX003 (ip), vehicle: distilled water + Tween-80) 116 % of control; (dose: 50.0 mg/kg/injection, schedule: Q04DX003 (ip), vehicle: distilled water + Tween-80) 108 % of control.
For the compound `COc1cc([N+](=O)[O-])cc(/C=C(\C)C2SC(C)(C)C(C)CN2C)c1O` (centres undefined), the T/C under setting [10] is 109 % of control; the T/C under setting [11] is 103 % of control; the T/C (dose: 400.0 mg/kg/injection, schedule: Q04DX003 (ip), vehicle: saline with Tween-80) was 100 % of control.
On to `C#CC(C)(O)C(O)c1ccccc1` (centres undefined), for which the T/C reads like this: under setting [12], 98 % of control; under setting [13], 109 % of control; (dose: 200.0 mg/kg/injection, schedule: Q01DX009 (ip), vehicle: saline with Tween-80) 96 % of control.
With `Cc1cccnc1NCc1ccccn1`, the T/C runs as follows: under setting [4], 103 % of control; under setting [5], 100 % of control; under setting [6], 93 % of control.
On to `CCN(CC)CCNc1nc(NCCN(CC)CC)c2cn[nH]c2n1`, for which the T/C (dose: 1.5 mg/kg/injection, schedule: Q01DX005 (ip), vehicle: saline) is 99 % of control; the T/C (dose: 3.0 mg/kg/injection, schedule: Q01DX005 (ip), vehicle: saline) is 103 % of control; the T/C (dose: 6.0 mg/kg/injection, schedule: Q01DX005 (ip), vehicle: saline) is 100 % of control and 102 % of control.
For `O=C1C=C2CCCCCCCC(C1)C2` (centres undefined), the T/C is, setting by setting: under setting [7], 113 % of control; under setting [8], 108 % of control; under setting [9], 110 % of control.
Turning to `Fc1cccc(CSc2ncnc3nc[nH]c23)c1`, the T/C (dose: 25.0 mg/kg/injection, schedule: Q01DX009 (ip), vehicle: saline with Tween-80) is 104 % of control; the T/C (dose: 25.0 mg/kg/injection, schedule: Q04DX003 (ip), vehicle: saline with Tween-80) is 95 % of control; the T/C under setting [12] was 95 % of control; the T/C (dose: 50.0 mg/kg/injection, schedule: Q04DX003 (ip), vehicle: saline with Tween-80) was 90 % of control; the T/C under setting [13] was 104 % of control; the T/C under setting [10] is 100 % of control and 104 % of control. Under setting [11], the T/C was 100 % of control.
As to `CCCOC1=NC2=NC(N3CCCC3)=NC3=C(Cl)C=C(Cl)C(=N1)N23`, the T/C was 94 % of control (dose: 25.0 mg/kg/injection, schedule: Q04DX002 (ip), vehicle: Klucel + Tween-80); 87 % of control (dose: 50.0 mg/kg/injection, schedule: Q04DX002 (ip), vehicle: Klucel + Tween-80); 116 % of control and 86 % of control (dose: 100.0 mg/kg/injection, schedule: Q04DX002 (ip), vehicle: Klucel + Tween-80).
For `O=S(=O)(ON=C1C=CC(=NOS(=O)(=O)c2ccccc2)C=C1)c1ccccc1`, the T/C is 107 % of control and 94 % of control (dose: 25.0 mg/kg/injection, schedule: Q04DX003 (ip), vehicle: Klucel (hydroxypropylcellulose) (HPC)); 103 % of control and 87 % of control and 94 % of control (dose: 50.0 mg/kg/injection, schedule: Q04DX003 (ip), vehicle: Klucel (hydroxypropylcellulose) (HPC)); 94 % of control under setting [1]; 99 % of control and 100 % of control under setting [2]; 116 % of control under setting [3].
In the case of `C[CH2][Pb]([CH2]C)([CH2]C)[O]C(=O)c1ccc2ccccc2n1`, the T/C is, setting by setting: (dose: 0.25 mg/kg/injection, schedule: Q01DX009 (ip), vehicle: saline with Tween-80) 100 % of control; (dose: 0.5 mg/kg/injection, schedule: Q01DX009 (ip), vehicle: saline with Tween-80) 103 % of control; (dose: 1.0 mg/kg/injection, schedule: Q01DX009 (ip), vehicle: saline with Tween-80) 99 % of control; (dose: 2.0 mg/kg/injection, schedule: Q01DX009 (ip), vehicle: saline with Tween-80) 94 % of control; (dose: 4.0 mg/kg/injection, schedule: Q01DX009 (ip), vehicle: saline with Tween-80) 112 % of control; (dose: 8.0 mg/kg/injection, schedule: Q01DX009 (ip), vehicle: saline with Tween-80) 90 % of control.
`CCN(CC)CCN(Cc1ccccc1)C(=O)C1c2ccccc2Oc2ccccc21`: the T/C runs as follows: under setting [4], 102 % of control; under setting [5], 105 % of control.
On to `CN(C)CCNC(=O)c1ccc(C(=O)NCCN(C)C)c2c(C(=O)NCCN(C)C)ccc(C(=O)NCCN(C)C)c12`, for which the T/C was 100 % of control (dose: 1.56 mg/kg/injection, schedule: Q01DX005 (ip), vehicle: saline with Tween-80); 106 % of control (dose: 3.13 mg/kg/injection, schedule: Q01DX005 (ip), vehicle: saline with Tween-80); 102 % of control and 109 % of control (dose: 6.25 mg/kg/injection, schedule: Q01DX005 (ip), vehicle: saline with Tween-80); 108 % of control (dose: 12.5 mg/kg/injection, schedule: Q01DX005 (ip), vehicle: saline with Tween-80).
